Source: US5538960A, “Hydrazono-5β, 14β-androstane derivatives active on the cardiovascular system, and pharmaceutical compositions containing same” (SIGMA-TAU Industrie Farmaceutiche Riunite S.p.A., priority 1992, dated 1996)

Key:
[1] = system: Na^+,K+ -ATPase; conditions: Gelbart and Thomas 1978; Schonfeld and Repke 1988; Thomas et al. 1974; Boutagy et al. 1973; cited from earlier work
[2] = Gelbart and Thomas 1978; Schonfeld and Repke 1988; cited from earlier work
[3] = system: spontaneous hypertensive rats (MHS); test: effect of 5 week-treatment on the development of hypertension in rats (SBP and HR, tail cuff method); type: in vivo, rat; conditions: 20 mg/Kg/os daily in Methocel 0.5% w/v, 5 weeks, 7 rats; for SBP: controls 172 +/- 3.5; for HR: controls 380 +/- 9.0
Procedure: Systolic blood pressure (SBP) and heart rate (HR) were measured, by the tail cuff method, in young prehypertensive male rats (MHS or SHR) strains before the development of hypertension (4 weeks of age) for recording the basal values of SBP. Groups of 7 rats were formed and subdivided in control and treated groups. The compound, suspended in Methocel 0.5 % (w/v), was orally given daily for at least 5 weeks to the treated groups. The control group received only Methocel.
SBP and HR were measured weekly 6 and 24 hrs after treatment. After 5 weeks of treatment, when hypertension was fully developed in the control group (9 weeks of age), washout was started for at least one week, to verify whether the treatment mantained blood pressure low or reestablished the basal values. […] (Takeda K. et al., Japan J. Pharmacol, 1979, 29,171; Takeda K. et al. Japan J. Pharmacol., 1982, 32, 283; Richer C. et al. Eur. J. Pharmacol, 1978, 47,393).

[4] = target: T1, Na^+,K+ -ATPase (Canis lupus familiaris, UniProt P50997); test: displacement of the specific ^3 H-ouabain binding from the Na^+,K+ -ATPase receptor
T1 construct: Na^+,K+ -ATPase receptor purified according to Jorghensen; from tissue
Description: (§1) To test the affinity for the receptor site of the Na^+,K+ -ATPase and the agonist or antagonist activity on the enzyme, the following tests were used:
a) displacement of the specific ^3 H-ouabain binding from the Na^+,K+ -ATPase receptor purified according to Jorghensen (Jorghensen P., BBA, 1974, 356, 36) and Erdmann (Erdmann E. et al., Arzneim. Forsh., 1984, 34, 1314);

[5] = target: T1, Na^+,K+ -ATPase; test: inhibition of the activity of the purified Na^+,K+ -ATPase measured as % of hydrolysis of ^32 P-ATP; type: biochemical
Description: as §1
b) inhibition of the activity of the purified Na^+,K+ -ATPase measured as % of hydrolysis of ^32 P-ATP in presence and in absence of the tested compound (Mall F. et al., Biochem. Pharmacol, 1984, 33, 47)

[6] = purified Na^+,K+ -ATPase, hydrolysis of ^32 P-ATP
[7] = purified Na^+,K+ -ATPase receptor, read-out: Binding ^3 H-Ouab. Displacement log IC50 (converted)
[8] = purified Na^+,K+ -ATPase, hydrolysis of ^32 P-ATP, read-out: Inhibitory Activity log IC50 (converted)

Row | Compound | IC50 [4] | IC50 [5] | IC50 [4, 7] | IC50 [5, 8] | other results
1 | C[C@]12CC[C@H](O)C[C@H]1CC[C@@H]1[C@@H]2CC[C@]2(C)C(C=NNC(=N)N)CC[C@]12O (stereo partly drawn) [17-Guanidinoiminomethyl-5β-androstane-3β,14β-diol] | – | – | – | – | inhibition of Na^+,K+ -ATPase [1]: weak inhibitors of Na^+,K+ -ATPase; positive inotropic activity [2]: weak positive inotropic agents
2 | C[C@]12CC[C@H](O)C[C@H]1CC[C@@H]1[C@@H]2CC[C@]2(C)C(=NNC(=N)N)CC[C@]12O [17-guanidinoimino-5β-androstane-3β,14β-diol] | – | – | – | – | inhibition of Na^+,K+ -ATPase [1]: weak inhibitors of Na^+,K+ -ATPase; positive inotropic activity [2]: weak positive inotropic agents
3 | C[C@]12CC[C@H](O)C[C@H]1CC[C@@H]1[C@@H]2CC[C@]2(C)[C@@H](/C=N/NC3=NCCN3)CC[C@]12O [Comp. I-aa, (E)-17β-(2-Imidazolin-2-yl)hydrazonomethyl-5β-androstane-3β,14β-diol] | 200 nM | – | – | – | SBP [3]: 149 +/- 3.7 mm Hg; HR [3]: 370 +/- 11.2 beats/min.; Inhibitory Activity log IC50 [5, 6]: 5.2
4 | CN1CCN=C1N/N=C/[C@H]1CC[C@]2(O)[C@@H]3CC[C@@H]4C[C@@H](O)CC[C@]4(C)[C@H]3CC[C@]12C [Comp. I-ac, (E)-17β-(1-Methyl-2-imidazolin-2-yl)hydrazono-methyl-5β-androstane-3β,14β-diol] | 1000 nM | 12600 nM | – | – | –
5 | C[C@]12CC[C@H](O)C[C@H]1CC[C@@H]1[C@@H]2CC[C@]2(C)[C@@H](/C=N/NC3=NCCCN3)CC[C@]12O [Comp. I-ae, (E)-17β-(1,4,5,6-Tetrahydro-2-pyrimidinyl)hydrazonomethyl-5β-androstane-3β,14β-diol] | 251 nM | – | – | – | Inhibitory Activity log IC50 [5, 6]: 5.3
6 | C[C@]12CC[C@H](O)C[C@H]1CC[C@@H]1[C@@H]2CC[C@]2(C)[C@@H](/C=N/NC(=N)NC(=N)N)CC[C@]12O [Comp. I-af, (E)-17β-(3-Amidino)guanidinoiminomethyl-5β-androstane-3β,14β-diol] | 200 nM | 7940 nM | – | – | –
7 | CN(C)CCNC(=N)N/N=C/[C@H]1CC[C@]2(O)[C@@H]3CC[C@@H]4C[C@@H](O)CC[C@]4(C)[C@H]3CC[C@]12C [Comp. I-ag, (E)-17β-(3-(2-Dimethylaminoethyl)guanidinoimino)methyl-5β-androstane-3β,14β-diol] | – | 25100 nM | 1000 nM | – | SBP [3]: 154 +/- 4.8 mm Hg; HR [3]: 390 +/- 5.9 beats/min.
8 | C[C@]12CC[C@H](O)C[C@H]1CC[C@@H]1[C@@H]2CC[C@]2(C)[C@@H](/C=N/N=C(\N)Nc3ccccc3)CC[C@]12O [Comp. I-ah, (E)-17β-(3-Phenylguanidino)iminomethyl-5β-androstane-3β,14β-diol] | – | 100000 nM | 6310 nM | – | –
9 | CSC(=N)N/N=C/[C@H]1CC[C@]2(O)[C@@H]3CC[C@@H]4C[C@@H](O)CC[C@]4(C)[C@H]3CC[C@]12C [Comp. I-ak, (E)-17β-(3-Methylisothiosemicarbazono)methyl-5β-androstane-3β,14-diol] | 2000 nM | 31600 nM | – | – | –
10 | C[C@]12CC[C@H](OCCCN)C[C@H]1CC[C@@H]1[C@@H]2CC[C@]2(C)[C@@H](/C=N/NC(=N)N)CC[C@]12O [Comp. I-al, (E)-3β-(3-Aminopropoxy)-17β-guanidinoiminomethyl-5β-androstane-14β-ol] | 39.8 nM | – | – | 794 nM | SBP [3]: 153 +/- 6.3 mm Hg; HR [3]: 380 +/- 10.0 beats/min.
11 | C[C@]12CC[C@H](OCCN3CCCC3)C[C@H]1CC[C@@H]1[C@@H]2CC[C@]2(C)[C@@H](/C=N/NC(=N)N)CC[C@]12O [Comp. I-an, (E)-3β-(2-(1-pyrrolidinyl)ethoxy)-17β-guanidinoiminomethyl-5β-androstane-14β-ol] | – | – | 39.8 nM | 501 nM | SBP [3]: 150 +/- 5.1 mm Hg; HR [3]: 384 +/- 7.9 beats/min.
12 | C[C@]12CC[C@H](OCCCN)C[C@H]1CC[C@@H]1[C@@H]2CC[C@]2(C)[C@@H](/C=N/NC(N)=O)CC[C@]12O [Comp. I-aq, (E)-3β-(3-Aminopropoxy)-17β-semicarbazonomethyl-5β-androstane-14β-ol] | 1260 nM | – | – | 39800 nM | –
13 | C[C@]12CC[C@H](OCCN3CCCC3)C[C@H]1CC[C@@H]1[C@@H]2CC[C@]2(C)[C@@H](/C=N/NC(N)=O)CC[C@]12O [Comp. I-as, (E)-3β-(2-(1-Pyrrolidinyl)ethoxy)-17β-semicarbazonomethyl-5β-androstane-14β-ol] | 1580 nM | – | – | 39800 nM | –
14 | C[C@]12CC[C@H](OCCCN)C[C@H]1CC[C@@H]1[C@@H]2CC[C@]2(C)[C@@H](/C=N/NC3=NCCN3)CC[C@]12O [Comp. I-au, (E)-3β-(3-Aminopropoxy)-17β(2-imidazolin-2-yl)hydrazonomethyl-5β-androstane-14β-ol] | 100 nM | 3980 nM | – | – | –
15 | C[C@]12CC[C@H](OCCN3CCCC3)C[C@H]1CC[C@@H]1[C@@H]2CC[C@]2(C)[C@@H](/C=N/NC3=NCCN3)CC[C@]12O [Comp. I-aw, (E)-3β-(2-(1-Pyrrolidinyl)ethoxy)-17β-(2-imidazolin-2-yl)hydrazonomethyl-5β-androstane-14β-ol] | – | – | 100 nM | 398 nM | SBP [3]: 151 +/- 5.2 mm Hg; HR [3]: 388 +/- 9.0 beats/min.
16 | C[C@]12CCC(=NNC(=N)N)C[C@H]1CC[C@@H]1[C@@H]2CC[C@]2(C)[C@@H](/C=N/NC(=N)N)CC[C@]12O [Comp. I-bi, 3-[(ZE)-Guanidinoimino]-17β-[(E)-guanidinoiminomethyl]-5β-androstane-14β-ol] | 126 nM | 5010 nM | – | – | –
17 | C/C(=N\N=C(N)N)[C@H]1CC[C@]2(O)[C@@H]3CC[C@@H]4C[C@@H](O)CC[C@]4(C)[C@H]3CC[C@]12C [Comp. I-bk, (E)-20-Guanidinoimino-5β-pregnane-3β,14β-diol] | 251 nM | 5010 nM | – | – | –
18 | C[C@]12CC[C@H](O)C[C@H]1CC[C@@H]1[C@@H]2CC[C@]2(C)[C@@](O)(/C=N/NC(=N)N)CC[C@]12O [Comp. I-bl, (E)-17β-Guanidinoiminomethyl-5β-androstane-3β,14β,17α-triol] | – | – | 1580 nM | 39800 nM | –
19 | C[C@]12CC[C@H](O)C[C@H]1CC[C@@H]1[C@@H]2CC[C@]2(C)[C@@](O)(/C=N/NC3=NCCN3)CC[C@]12O [Comp. I-bn, (E)-17β-(2-Imidazolin-2-yl)hydrazonomethyl-5β-androstane-3β,14β,17α-triol] | 3980 nM | 12600 nM | – | – | –
20 | C[C@]12CC[C@H](O)C[C@H]1CC[C@@H]1[C@@H]2CC[C@]2(C)/C(=N/NC3=NCCN3)CC[C@]12O [Comp. I-bo, (E)-17-(2-Imidazolin-2-yl)hydrazono-5β-androstane-3β,14β-diol] | – | – | 2000 nM | 39800 nM | –
